Experimental data as given in patent US10752626B2, “Iso-citrate dehydrogenase (IDH) inhibitor” (SHANGHAI METON PHARMACEUTICAL CO., LTD, priority 2016, dated 2020).
Read-outs that look alike come from different tables or passages of the source.

Assay: In vivo pharmacokinetics in ICR mouse
Description: The pharmacokinetic properties of the compounds of the present disclosure were assessed in ICR mice (male, 6-8 weeks, 20.0-25.3 g) after p.o. and i.v. administration.
The ICR mice were purchased from Vital River Laboratory Technology Co., Ltd. (Beijing, China), housed in solid bottom polypropylene cages with sterilized bedding, kept in a room with 40% to 70% humidity, 20 to 25° C. room temperature, 10 to 20 air changes/hour, and on a 12-hour light/dark cycle except when interruptions are necessitated by study activities. The mice were fed with sterilized diet from Shanghai SLAC Laboratory Animal Co., Ltd. (Shanghai, China) and sterilized water. All animals were examined upon receipt and were acclimated for at least 3 days. Only the ones that appear to be healthy were selected for the study basing on overall health, body weight, or other relevant data as appropriate. Individual animal in each group was identified by ear notch.
The mice were fasted overnight prior to treatment, but having free access to drinking water all the time. Before dosing, each mouse was weighed and the actual dose volume for each mouse was calculated by using the formula below: Dose Volume (mL) [Nominal Dose (mg·kg^−1)/Dose Concentration (mg·mL^−1)]×Animal Body Weight (kg)
The actual body weights and the actual dose volumes were recorded accordingly.
For each test group, nine mice were used, and mice in different groups were given a single p.o dose of the test compound at 10 mg·kg^−1, or a single i.v. dose of 2 mg·kg^−1 respectively. Blood samples (e.g., at least […]) were collected into EDTA-K2 tubes at pre-determined time points, for example, pre-dose, 5 min, 15 min, 30 min, 1 h, 2 h, 4 h, 8 h, 12 h, and 24 h post-dose. Each mouse was collected the blood sample at three discontinuous time points, and three mice were used for sampling at each time point. The collected samples were centrifuged at 5500 rpm for 10 min to obtain plasma samples, which were later measured by LC-MS/MS. Data of plasma concentration vs. time were processed by linear regression analysis. All pharmacokinetic parameters were calculated using non-compartment model of Pharsight Phoenix 6.3.
The pharmacokinetics (PK) studies of the compounds were conducted in ICR mice (male, 6-8 weeks, 20.0-25.3 g, Vital River Laboratory Technology Co., Ltd.) administrated a single p.o. dose of 10 mg·kg^−1 or a single i.v. dose of 2 mg·kg^−1 according to the method disclosed in Test 4 of the Biological evaluation section.
Each experiment was independently performed in triplicate. The plasma concentration of an exemplary Compound 23 after a p.o. administration of 10 mg·kg^−1 in ICR mouse is plotted as function of time in FIG. 6. The plasma concentration of the exemplary Compound 23 after an i.v. injection of 2 mg·kg^−1 in ICR mouse is plotted as function of time in FIG. 7. Each data represents the mean plasma concentration of the three experiments with standard error of mean (SEM) as error bars.

[1] = male, plasma, iv, i.v. dose of 2 mg · kg^−1
[2] = male, plasma, po, p.o. dose of 10 mg · kg^−1

CCN1Cc2c(ccnc2N[C@@H](C)c2ccc(Oc3ccccc3)c(F)c2)C1=O [Compound 23, (S)-2-ethyl-4-((1-(3-fluoro-4-phenoxyphenyl)ethyl)amino)-2,3-dihydro-1H-pyrrolo[3,4-c]pyridin-1-one]
AUMC0-inf (i.v. dose of 2 mg · kg^−1): 1283 ng · h^2 · mL^−1
AUMC0-t (i.v. dose of 2 mg · kg^−1): 1138 ng · h^2 · mL^−1
Kel (i.v. dose of 2 mg · kg^−1): 0.244 h⁻¹
MRTIV (i.v. dose of 2 mg · kg^−1): 58.8 min
AUC(0-t) [1]: 1300 ng·h/mL
clearance [1]: 25.4 mL/min/kg
half-life [1]: 168 min
AUC0-inf (male, plasma, iv, i.v. dose of 2 mg · kg^−1, read-out: AUC0-inf): 1310 ng·h/mL
Vd (male, plasma, iv, i.v. dose of 2 mg · kg^−1, read-out: Vdss): 1.49 L/kg
AUC(0-t) [2]: 2890 ng·h/mL
Cmax [2]: 1180 ng/mL
Tmax [2]: 15 min
half-life [2]: 108 min
AUC0-inf (p.o. dose of 10 mg · kg^−1): 2917 ng · h · mL^1
AUMC0-inf (p.o. dose of 10 mg · kg^−1): 7550 ng · h^2 · mL^−1
AUMC0-t (p.o. dose of 10 mg · kg^−1): 7099 ng · h^2 · mL^−1
F (p.o. dose of 10 mg · kg^−1): 44%
Kel (p.o. dose of 10 mg · kg^−1): 0.385 h⁻¹
MRTPO (p.o. dose of 10 mg · kg^−1): 2.6 h
